Laboratory results as given in ChEMBL document CHEMBL3044826, “Design, synthesis and biological evaluation of some novel substituted 2-mercapto-3-phenethylquinazolines as antitumor agents” (2013).
Active and inactive are the calls of the source. The calls are words filed in the database; no cut-off is given here.

Key:
T47D = test: Cytotoxicity against Homo sapiens (human) T47D cells assessed as growth inhibition at 10 uM after 48 hr by coulter counter analysis; type: functional; conditions: read-out: GI
786-0 = test: Cytotoxicity against Homo sapiens (human) 786-0 cells assessed as growth inhibition at 10 uM after 48 hr by coulter counter analysis; type: functional; conditions: 786-0, 48 h, read-out: GI
SNB-75 = test: Cytotoxicity against Homo sapiens (human) SNB75 cells assessed as growth inhibition at 10 uM after 48 hr by coulter counter analysis; type: functional; conditions: SNB-75, 48 h, read-out: GI
NCI-H23 = test: Cytotoxicity against Homo sapiens (human) NCI-H23 cells assessed as growth inhibition at 10 uM after 48 hr by coulter counter analysis; type: functional; conditions: NCI-H23, 48 h, read-out: GI
UACC-62 = test: Cytotoxicity against Homo sapiens (human) UACC62 cells assessed as growth inhibition at 10 uM after 48 hr by coulter counter analysis; type: functional; conditions: UACC-62, 48 h, read-out: GI
CAKI-1 = test: Cytotoxicity against Homo sapiens (human) Caki1 cells assessed as growth inhibition at 10 uM after 48 hr by coulter counter analysis; type: functional; conditions: CAKI-1, 48 h, read-out: GI
HOP-62 = test: Cytotoxicity against Homo sapiens (human) HOP62 cells assessed as growth inhibition at 10 uM after 48 hr by coulter counter analysis; type: functional; conditions: HOP-62, 48 h, read-out: GI
Hs-578T = test: Cytotoxicity against Homo sapiens (human) Hs578T cells assessed as growth inhibition at 10 uM after 48 hr by coulter counter analysis; type: functional; conditions: read-out: GI
UO-31 = test: Cytotoxicity against Homo sapiens (human) UO31 cells assessed as growth inhibition at 10 uM after 48 hr by coulter counter analysis; type: functional; conditions: UO-31, 48 h, read-out: GI
NCI-H522 [1] = test: Cytotoxicity against Homo sapiens (human) NCI-H522 cells assessed as growth inhibition at 10 uM after 48 hr by coulter counter analysis; type: functional; conditions: NCI-H522, 48 h, read-out: GI
EKVX = test: Cytotoxicity against Homo sapiens (human) EKVX cells assessed as growth inhibition at 10 uM after 48 hr by coulter counter analysis; type: functional; conditions: read-out: GI
UACC-257 = test: Cytotoxicity against Homo sapiens (human) UACC257 cells assessed as growth inhibition at 10 uM after 48 hr by coulter counter analysis; type: functional; conditions: UACC-257, 48 h, read-out: GI
CCRF-CEM = test: Cytotoxicity against Homo sapiens (human) CCRF-CEM cells assessed as growth inhibition at 10 uM after 48 hr by coulter counter analysis; type: functional; conditions: read-out: GI
NCI-H226 = test: Cytotoxicity against Homo sapiens (human) NCI-H226 cells assessed as growth inhibition at 10 uM after 48 hr by coulter counter analysis; type: functional; conditions: NCI-H226, 48 h, read-out: GI
SK-MEL-5 = test: Cytotoxicity against Homo sapiens (human) SK-MEL-5 cells assessed as growth inhibition at 10 uM after 48 hr by coulter counter analysis; type: functional; conditions: SK-MEL-5, 48 h, read-out: GI
RXF 393 = test: Cytotoxicity against Homo sapiens (human) RXF393 cells assessed as growth inhibition at 10 uM after 48 hr by coulter counter analysis; type: functional; conditions: RXF 393, 48 h, read-out: GI
A498 = test: Cytotoxicity against Homo sapiens (human) A498 cells assessed as growth inhibition at 10 uM after 48 hr by coulter counter analysis; type: functional; conditions: A498, 48 h, read-out: GI
[2] = Cytotoxicity against Homo sapiens (human) NCI-ADR-RES cells assessed as growth inhibition at 10 uM after 48 hr by coulter counter analysis; type: functional; conditions: read-out: GI
MOLT-4 = test: Cytotoxicity against Homo sapiens (human) MOLT4 cells assessed as growth inhibition at 10 uM after 48 hr by coulter counter analysis; type: functional; conditions: MOLT-4, 48 h, read-out: GI
NCI-H522 [3] = test: Cytotoxicity against Homo sapiens (human) NCI-H522 cells at 10 uM after 48 hr by coulter counter analysis; type: functional, cell-based
HL-60(TB) = test: Cytotoxicity against Homo sapiens (human) HL-60(TB) cells assessed as growth inhibition at 10 uM after 48 hr by coulter counter analysis; type: functional; conditions: HL-60, 48 h, read-out: GI
NCI-H460 = test: Cytotoxicity against Homo sapiens (human) NCI-H460 cells assessed as growth inhibition at 10 uM after 48 hr by coulter counter analysis; type: functional; conditions: NCI-H460, 48 h, read-out: GI

| SMILES | inhibition of growth at 10 µM (T47D) [%] | inhibition of growth at 10 µM (786-0) [%] | inhibition of growth at 10 µM (SNB-75) [%] | inhibition of growth at 10 µM (NCI-H23) [%] | inhibition of growth at 10 µM (UACC-62) [%] | inhibition of growth at 10 µM (CAKI-1) [%] | inhibition of growth at 10 µM (HOP-62) [%] | inhibition of growth at 10 µM (Hs-578T) [%] | inhibition of growth at 10 µM (UO-31) [%] | inhibition of growth at 10 µM (NCI-H522 [1]) [%] | inhibition of growth at 10 µM (EKVX) [%] | inhibition of growth at 10 µM (UACC-257) [%] | inhibition of growth at 10 µM (CCRF-CEM) [%] | inhibition of growth at 10 µM (NCI-H226) [%] | inhibition of growth at 10 µM (SK-MEL-5) [%] | inhibition of growth at 10 µM (RXF 393) [%] | inhibition of growth at 10 µM (A498) [%] | inhibition of growth at 10 µM [2] [%] | inhibition of growth at 10 µM (MOLT-4) [%] | inhibition of growth at 10 µM (NCI-H460) [%] | further results |
| --- | --- | --- | --- | --- | --- | --- | --- | --- | --- | --- | --- | --- | --- | --- | --- | --- | --- | --- | --- | --- | --- |
| O=c1c2ccccc2nc(SCc2nnc(S)n2Cc2ccccc2)n1CCc1ccccc1 | 38 | < 10 | < 10 | < 10 | 17 | < 10 | < 10 | < 10 | < 10 | 46 | 17 | < 10 | 13 | 22 | < 10 | < 10 | < 10 | 16 | – | – | – |
| CCn1c(S)nnc1CSc1nc2ccccc2c(=O)n1CCc1ccccc1 | 27 | 19 | < 10 | < 10 | 15 | < 10 | 22 | < 10 | 24 | – | 15 | 12 | 27 | 35 | 18 | < 10 | < 10 | 27 | 29 | 31 | Activity (NCI-H522 [3]): Active; inhibition of growth at 10 µM (HL-60(TB)): 30% |
| O=c1c2ccccc2nc(SCc2nnc(S)n2-c2ccccc2)n1CCc1ccccc1 | 38 | < 10 | < 10 | < 10 | 19 | 17 | 24 | < 10 | 30 | < 10 | 31 | – | 28 | < 10 | 24 | < 10 | 41 | < 10 | – | < 10 | – |
| O=C(CSc1nc2ccccc2c(=O)n1CCc1ccccc1)c1ccccc1 | < 10 | < 10 | 18 | < 10 | 16 | 22 | < 10 | < 10 | 22 | 11 | 18 | < 10 | – | < 10 | < 10 | < 10 | 46 | < 10 | – | < 10 | – |
| COc1ccc(-n2c(S)nnc2CSc2nc3ccccc3c(=O)n2CCc2ccccc2)cc1 | < 10 | < 10 | < 10 | < 10 | 19 | 17 | < 10 | < 10 | 30 | < 10 | 31 | < 10 | 13 | < 10 | 24 | < 10 | 51 | < 10 | – | < 10 | – |
| O=c1c2ccccc2[nH]c(=S)n1CCc1ccccc1 | < 10 | < 10 | < 10 | < 10 | 20 | < 10 | 26 | < 10 | 33 | < 10 | 18 | < 10 | 16 | < 10 | 13 | < 10 | 46 | < 10 | 23 | < 10 | inhibition of growth at 10 µM (HL-60(TB)): 11% |
